# Test results from patent US20240189388A1, “MEDICATION FOR TREATING LUNG INJURY” (SHANGHAI SEME CELL TECHNOLOGY CO., LTD., priority 2021, published 2024).
# Assays:
# [1] = test system: LPS-induced acute respiratory distress syndrome; assay: BALF neutrophil count and percentage, LPS-induced ARDS rat model (Example 1); assay type: in vivo, SD rats
# Experimental: (§1) Normal adult male SD rats were randomly grouped, 5 rats in each group. The animals were intraperitoneally injected and nebulized in the trachea with lipopolysaccharides (LPS) as a modeling reagent, as shown in Table 1:
# (§2) The animals in groups G1 and G2 were intraperitoneally injected with lipopolysaccharides (0.8 mg/kg. body weight) according to their body weight, anesthetized by inhaling isoflurane after 16 h of the intraperitoneal injection, and nebulized with lipopolysaccharides (5 mg/kg. body weight) in the trachea.
# Intraperitoneal injection with lipopolysaccharides (LPS): According to the body weight of the animals, each animal was administered with lipopolysaccharides by intraperitoneal injection with a disposable micro syringe.
# Intratracheal nebulization with lipopolysaccharides (LPS): Each animal was anesthetized by inhaling isoflurane and then fixed on a rat fixator placed at a 45° angle, the root of the animal's tongue was pressed by a small animal anesthesia laryngoscope to expose the glottis, a pulmonary micro liquid nebulizer needle (blunt) that extracted a quantitative solution of LPS was gently inserted into the trachea, then the piston was quickly pushed to atomize the LPS solution into the lung, the needle was quickly pulled out, and the animal was taken down from the fixator and rotated left and right with its head facing upwards to distribute LPS as evenly as possible in each lung lobe.
# (§3) The animals were administered for the first time within 1 h after the intratracheal nebulization with the modeling reagent (LPS), and the second time after 24 h.
# The day after the end of the second administration (48 h after the intratracheal nebulization with the modeling reagent).
# Collection of samples: On the day after the second administration, all groups of animals were euthanized with CO2, then their abdominal cavities were opened, and their abdominal arteries were cut for bleeding. […] Precipitated cells were re-suspended with 1 ML PBS, and total cells in the BALF were counted by a blood cell counter and trypan blue staining. […]
# [2] = test system: rats with a lung injury; assay: BALF inflammatory factors and total protein (Example 2); assay type: in vivo, Sprague-Dawley rats
# Experimental: (§4) D0: The animals in the normal control group were intraperitoneally injected with sodium chloride injection (1 ml/kg), while the animals in other groups were intraperitoneally injected with lipopolysaccharides (1 mg/kg, 1 ml/kg).
# (§5) D1: After 16 h (+30 min) of intraperitoneal injection, the animals were anesthetized by inhaling isoflurane. The animals in the normal control group were nebulized with sodium chloride injection (1 mL/kg) in the trachea, while the animals in other groups were nebulized with lipopolysaccharides (5 mg/kg, 1 ml/kg) in the trachea.
# (§6) Administration frequency and duration: On D1, the animals were administered for the first time within 3 h after the intratracheal nebulization with the modeling reagent (LPS); and on D2, the animals were administered for the second time. The interval between the two administrations was about 24 h (+20 min).
# Sample collection: After the animals were euthanatized, the skin and tissues of the neck and chest were incised to expose the trachea, bronchi, and lungs. The bronchi in the right lung were separated and ligated. A suture was threaded under the trachea, a ½ incision was made between cartilage rings of the trachea at an appropriate position under the thyroid cartilage, a trachea cannula was slowly inserted along the incision into the airway to a left bronchus, and the inserted cannula was fastened with the trachea by using the threaded suture at an appropriate position in a centripetal direction of the incision. 3 ml of PBS buffer was slowly injected with a syringe for bronchoalveolar lavage. The lavage was repeated 3 times, with each remaining for about 10 seconds. The lavage solution was collected into a centrifuge tube of appropriate capacity.
# BALF treatment: The collected lavage solution was centrifuged at 4° C. and approximately 2000 rpm for 20 min. The supernatant was stored below −60° C. for later use. The precipitate was re-suspended with I mL of PBS buffer for count and classification of white blood cells. The supernatant after BALF centrifugation was managed as a sample by using a Watson LIMS7.5 system.
# Test of total protein content in the BALF: At the end of the experiment, the total protein content in the BALF was tested by a total protein test kit (BCA method).
# Test of inflammatory factors in the BALF: At the end of the experiment, the inflammatory factors (IL-1β, IL-6, IL-10, and TNF-α) in the BALF were tested by an inflammatory factor test kit.
# [3] = test system: rats with a lung injury; assay: Wet/dry ratio of the lung (Example 2); assay type: in vivo, Sprague-Dawley rats
# Experimental: as §4, §5, §6
# During the autopsy, whether the lungs, trachea, and bronchi of the animals were abnormal were observed. […]
# Foreign matters such as blood and tissue fluid on the surface of the middle lobe tissues of the right lung were wiped with a paper towel, the right lung was weighed, then the middle lobe tissues of the right lung were placed in a 60° C. oven for 72 h, the right lung was weighed again, and the wet/dry weight ratio of the lung was calculated. […]
# [4] = Body weight of rats after LPS modeling (Example 1); assay type: in vivo
# Experimental: as §1, §2, §3
# Before grouping, the animals were weighed on the day of modeling and the day of administration of samples; and the animals were also weighed when they were found dead or on the brink of euthanasia.
# [5] = G2 mean, 5 rats, 1 mg/kg caudal vein injection twice, 48 h after LPS nebulization
# [6] = D3, 0.75 mg/kg i.v. twice, 6 rats, x ± SD
substance,measurement,setting,value
Annexin A5,Effect on count of neutrophils (Neu cells) in the BALF,[1]; G2 compared to model control group G1,significantly inhibited
same,Neu cell counts in the BALF,[1]; [5],7.03 *10^6
same,Percentages of Neu cells in the BALF,[1]; [5],36.80%
same,IL-1β in BALF,[2]; [6],107.45 ± 51.12 pg/mL
same,IL-6 in BALF,[2]; [6],14.42 ± 23.92 pg/mL
same,IL-10 in BALF,[2]; [6],0.92 ± 2.23 pg/mL
same,TNF-α in BALF,[2]; [6],4.54 ± 4.63 pg/mL
same,Total proteins in BALF,[2]; [6],461.31 ± 187.36 µg/mL
same,"Change of BALF white blood cell counts, total protein and inflammatory factors",[2]; test sample group vs model control group,significantly decreased
same,Wet/dry ratio of the lung,"[3]; middle lobe of right lung, 0.75 mg/kg i.v. twice, 6 rats, x ± SD",4.68 ± 0.08
same,Change of wet/dry ratio of the lung,[3]; test sample group,decreased
same,"Body weight, Day 0","[4]; G2 mean, 5 rats, 1 mg/kg caudal vein injection, Day 0",254.49 g
same,"Body weight, Day 1","[4]; G2 mean, 5 rats, 1 mg/kg caudal vein injection, Day 1",240.80 g
same,"Body weight, Day 2","[4]; G2 mean, 5 rats, 1 mg/kg caudal vein injection, Day 2",224.36 g
same,"Body weight, Day 3","[4]; G2 mean, 5 rats, 1 mg/kg caudal vein injection, Day 3",241.86 g
same,Body weight compared between groups,"[4]; after LPS modeling, G2 vs G1",no significant difference between the groups
